In patent publication US7081472B2, “Substituted bis-indole derivatives useful as contrast agents, pharmaceutical compositions containing them and intermediates for producing them” (K. U. Leuven Research & Development, priority 2000, dated 2006):

Assays:
[1] = MR angiography after intravenous injection in a rabbit; assay type: in vivo; settings: i.v. 0.1 mmole per kg
Text: For the purpose of a comparison with a known contrast agent, MR angiographic images of a rabbit were taken (shown in FIG. 5) after intravenous injection of: • a commercial MRI contrast agent (Gd-DTPA commercially available under the tradename Magnevisto® from Schering A G, Berlin, Germany) at a concentration of 0.1 mmole per kg bodyweight (A-C), and • the complex of example 8 at a concentration of 0.05 mmole per kg bodyweight (A′-C′).

[2] = animals, 1 mmole of the gadolinium complex per kg body weight; cited from earlier work
[3] = 0.25 mmolar solution, yellow-orange color; cited from earlier work

Row | Compound | contrast enhancement of abdominal aorta, first pass ([1]; immediately after injection) | contrast enhancement of abdominal aorta ([1]; one minute after contrast) | side effects after intravenous bolus injection [2] | absorbance at 400 nm [3]
1 | O=C([O-])CN(CCN(CC(=O)[O-])CC(=O)O)CCN(CC(=O)[O-])CC(=O)O.[Gd+3] [Gd-DTPA] | moderately enhanced | faintly enhanced |  | 
2 | gadolinium complex of the bis-diethylenetriaminepentaacetic acid pamoic acid derivative obtained from 3-hydroxy-2-naphtalene methyl carboxylate |  |  | significant side effects (e.g. myocarditis) | 0.75
